{
  "source": "patent US20070197453A1",
  "about": "“Compositions and methods for treatment of disorders of protein aggregation” (priority 2006, published 2007)",
  "origin": "cited, not measured here",
  "system": "neurons",
  "settings": "cited from earlier work",
  "data": [
    {"molecule": "OC1C(O)C(O)C(O)C(O)C1O", "note": "(stereo not shown) [chiro-inositol, chiro-cyclohexanehexol, reference compound]", "values": [
      {"measurement": "activity against synthetic Aβ42 neurotoxicity", "value": "inactive"}
    ]}
  ]
}
